From patent publication US20220081412A1, “QUINOLINYL-PYRAZINE-CARBOXAMIDE COMPOUNDS AND USES THEREOF” (The Regents of the University of Michigan, priority 2018, published 2022)

Tested on: NCI60 cell lines
Assay: NCI60 cell line panel
Type: cell-based, human
Experimental: The Developmental Therapeutics Program (DTP) of NCI has evaluated more than 100,000 pure compounds and more than 34,000 crude extracts against the panel of human tumor cell lines. The resultant data are analyzed using a program called COMPARE, that rank the entire database of tested compounds in the order of the similarity of the responses. […] Thus, the NCI60 databases is highly useful to the cancer research community. Further experiments were conducted that tested some of the active compounds in a panel of NCI60 cell line to relate our compounds with some known inhibitors to have an idea of possible mechanism of action.
In order to understand the selectivity of these compounds in different cancer types, some of them were tested against a panel of 60 cell lines (Table XXXIX).

[1] = Non-Small Cell Lung Cancer, A549/ATCC
[2] = Non-Small Cell Lung Cancer, EKVX
[3] = Non-Small Cell Lung Cancer, HOP-62
[4] = Non-Small Cell Lung Cancer, HOP-92
[5] = Non-Small Cell Lung Cancer, NCI-H23
[6] = Non-Small Cell Lung Cancer, NCI-H226
[7] = Non-Small Cell Lung Cancer, NCI-H322M
[8] = Non-Small Cell Lung Cancer, NCI-H460
[9] = Non-Small Cell Lung Cancer, NCI-H522

SMILES: CCN(CC)CCCC(C)Nc1cnc(C(=O)Nc2cccc3ccc(OC)nc23)cn1 (stereo not shown) [J11, 5-((5-(diethylamino)pentan-2-yl)amino)-N-(2-methoxyquinolin-8-yl)pyrazine-2-carboxamide]
- GIPRCNT: % Growth inhibition (Breast Cancer, BT-549): 83.22%
- GIPRCNT: % Growth inhibition (Breast Cancer, HS 578T): 69.51%
- GIPRCNT: % Growth inhibition (Breast Cancer, MCF7): 20.06%
- GIPRCNT: % Growth inhibition (Breast Cancer, MDA-MB-231/ATCC): 71.85%
- GIPRCNT: % Growth inhibition (Breast Cancer, MDA-MB-468): 79.15%
- GIPRCNT: % Growth inhibition (Breast Cancer, T-47D): 83.88%
- GIPRCNT: % Growth inhibition (CNS Cancer, SF-268): 63.03%
- GIPRCNT: % Growth inhibition (CNS Cancer, SF-295): 100.8191%
- GIPRCNT: % Growth inhibition (CNS Cancer, SF-539): 0.4567%
- GIPRCNT: % Growth inhibition (CNS Cancer, SNB-19): 94.85%
- GIPRCNT: % Growth inhibition (CNS Cancer, SNB-75): 75.89%
- GIPRCNT: % Growth inhibition (CNS Cancer, U251): 56.1223%
- GIPRCNT: % Growth inhibition (Colon Cancer, COLO 205): 71.37%
- GIPRCNT: % Growth inhibition (Colon Cancer, HCC-2998): 90.92%
- GIPRCNT: % Growth inhibition (Colon Cancer, HCT-15): −25.625%
- GIPRCNT: % Growth inhibition (Colon Cancer, HCT-116): −36.0085%
- GIPRCNT: % Growth inhibition (Colon Cancer, HT29): −47.1759%
- GIPRCNT: % Growth inhibition (Colon Cancer, KM12): 36.32%
- GIPRCNT: % Growth inhibition (Colon Cancer, SW-620): 2.118%
- GIPRCNT: % Growth inhibition (Leukemia, CCRF-CEM): −7.649%
- GIPRCNT: % Growth inhibition (Leukemia, HL-60(TB)): 72.3913%
- GIPRCNT: % Growth inhibition (Leukemia, K-562): −57.0747%
- GIPRCNT: % Growth inhibition (Leukemia, MOLT-4): 53.43%
- GIPRCNT: % Growth inhibition (Leukemia, RPMI-8226): 23.8%
- GIPRCNT: % Growth inhibition (Leukemia, SR): −5.71%
- GIPRCNT: % Growth inhibition (Melanoma, LOX IMVI): −89.8952%
- GIPRCNT: % Growth inhibition (Melanoma, M14): −75.6475%
- GIPRCNT: % Growth inhibition (Melanoma, MALME-3M): −69.7804%
- GIPRCNT: % Growth inhibition (Melanoma, MDA-MB-435): −58.2282%
- GIPRCNT: % Growth inhibition (Melanoma, SK-MEL-2): 70.47%
- GIPRCNT: % Growth inhibition (Melanoma, SK-MEL-5): 5.402%
- GIPRCNT: % Growth inhibition (Melanoma, UACC-62): −57.758%
- GIPRCNT: % Growth inhibition (Melanoma, UACC-257): −39.0086%
- GIPRCNT: % Growth inhibition [1]: 81.18%
- GIPRCNT: % Growth inhibition [2]: 104.0141%
- GIPRCNT: % Growth inhibition [3]: 94.18%
- GIPRCNT: % Growth inhibition [4]: 49.4978%
- GIPRCNT: % Growth inhibition [5]: 96.1%
- GIPRCNT: % Growth inhibition [6]: 61.44%
- GIPRCNT: % Growth inhibition [7]: 75.47%
- GIPRCNT: % Growth inhibition [8]: 1.048%
- GIPRCNT: % Growth inhibition [9]: 5.069%
- GIPRCNT: % Growth inhibition (Ovarian Cancer, IGROV1): 78.33%
- GIPRCNT: % Growth inhibition (Ovarian Cancer, NCI/ADR-RES): 76.12%
- GIPRCNT: % Growth inhibition (Ovarian Cancer, OVCAR-3): −30.7372%
- GIPRCNT: % Growth inhibition (Ovarian Cancer, OVCAR-4): 98.13%
- GIPRCNT: % Growth inhibition (Ovarian Cancer, OVCAR-5): 91.29%
- GIPRCNT: % Growth inhibition (Ovarian Cancer, OVCAR-8): 68.24%
- GIPRCNT: % Growth inhibition (Ovarian Cancer, SK-OV-3): 86.95%
- GIPRCNT: % Growth inhibition (Prostate Cancer, DU-145): 78.79%
- GIPRCNT: % Growth inhibition (Prostate Cancer, PC-3): 69.52%
- GIPRCNT: % Growth inhibition (Renal Cancer, 786-0): 73.41%
- GIPRCNT: % Growth inhibition (Renal Cancer, A498): 46.17%
- GIPRCNT: % Growth inhibition (Renal Cancer, ACHN): −86.4619%
- GIPRCNT: % Growth inhibition (Renal Cancer, CAKI-1): 94.69%
- GIPRCNT: % Growth inhibition (Renal Cancer, RXF 393): 45.96%
- GIPRCNT: % Growth inhibition (Renal Cancer, SN12C): 78.47%
- GIPRCNT: % Growth inhibition (Renal Cancer, TK-10): 90.98%
- GIPRCNT: % Growth inhibition (Renal Cancer, UO-31): 69.07%

SMILES: CCN(CC)CCCC(C)Nc1cnc(C(=O)Nc2cc(F)cc3cccnc23)cn1 (stereo not shown) [J17, 5-((5-(diethylamino)pentan-2-yl)amino)-N-(6-fluoroquinolin-8-yl)pyrazine-2-carboxamide]
- GIPRCNT: % Growth inhibition (Breast Cancer, BT-549): 77.38%
- GIPRCNT: % Growth inhibition (Breast Cancer, HS 578T): 69.28%
- GIPRCNT: % Growth inhibition (Breast Cancer, MCF7): 2.311%
- GIPRCNT: % Growth inhibition (Breast Cancer, MDA-MB-231/ATCC): 59.42%
- GIPRCNT: % Growth inhibition (Breast Cancer, MDA-MB-468): 6.238%
- GIPRCNT: % Growth inhibition (Breast Cancer, T-47D): 14.34%
- GIPRCNT: % Growth inhibition (CNS Cancer, SF-268): 51.93%
- GIPRCNT: % Growth inhibition (CNS Cancer, SF-295): 71.23%
- GIPRCNT: % Growth inhibition (CNS Cancer, SF-539): 83.12%
- GIPRCNT: % Growth inhibition (CNS Cancer, SNB-19): 83.09%
- GIPRCNT: % Growth inhibition (CNS Cancer, SNB-75): 65.6595%
- GIPRCNT: % Growth inhibition (CNS Cancer, U251): 50.2764%
- GIPRCNT: % Growth inhibition (Colon Cancer, COLO 205): 3.108%
- GIPRCNT: % Growth inhibition (Colon Cancer, HCC-2998): 66.69%
- GIPRCNT: % Growth inhibition (Colon Cancer, HCT-15): 24.5%
- GIPRCNT: % Growth inhibition (Colon Cancer, HCT-116): 9.52%
- GIPRCNT: % Growth inhibition (Colon Cancer, HT29): 11.8%
- GIPRCNT: % Growth inhibition (Colon Cancer, KM12): 75.34%
- GIPRCNT: % Growth inhibition (Colon Cancer, SW-620): 24.3%
- GIPRCNT: % Growth inhibition (Leukemia, CCRF-CEM): 19.66%
- GIPRCNT: % Growth inhibition (Leukemia, HL-60(TB)): 85.54%
- GIPRCNT: % Growth inhibition (Leukemia, K-562): 3.946%
- GIPRCNT: % Growth inhibition (Leukemia, MOLT-4): 21.9615%
- GIPRCNT: % Growth inhibition (Leukemia, RPMI-8226): 75.09%
- GIPRCNT: % Growth inhibition (Leukemia, SR): 2.839%
- GIPRCNT: % Growth inhibition (Melanoma, LOX IMVI): 33.27%
- GIPRCNT: % Growth inhibition (Melanoma, M14): 21.9%
- GIPRCNT: % Growth inhibition (Melanoma, MALME-3M): −8.343%
- GIPRCNT: % Growth inhibition (Melanoma, MDA-MB-435): 25.54%
- GIPRCNT: % Growth inhibition (Melanoma, SK-MEL-2): 96.72%
- GIPRCNT: % Growth inhibition (Melanoma, SK-MEL-5): 69.98%
- GIPRCNT: % Growth inhibition (Melanoma, UACC-62): 0.9972%
- GIPRCNT: % Growth inhibition (Melanoma, UACC-257): 76.77%
- GIPRCNT: % Growth inhibition [1]: 58.01%
- GIPRCNT: % Growth inhibition [2]: 73.3%
- GIPRCNT: % Growth inhibition [3]: 64.08%
- GIPRCNT: % Growth inhibition [4]: 37.52%
- GIPRCNT: % Growth inhibition [5]: 81.37%
- GIPRCNT: % Growth inhibition [6]: 85.09%
- GIPRCNT: % Growth inhibition [7]: 63.8%
- GIPRCNT: % Growth inhibition [8]: 69.55%
- GIPRCNT: % Growth inhibition [9]: 52.69%
- GIPRCNT: % Growth inhibition (Ovarian Cancer, IGROV1): 41.74%
- GIPRCNT: % Growth inhibition (Ovarian Cancer, NCI/ADR-RES): 66.76%
- GIPRCNT: % Growth inhibition (Ovarian Cancer, OVCAR-3): 5.413%
- GIPRCNT: % Growth inhibition (Ovarian Cancer, OVCAR-4): 12.24%
- GIPRCNT: % Growth inhibition (Ovarian Cancer, OVCAR-5): 77.12%
- GIPRCNT: % Growth inhibition (Ovarian Cancer, OVCAR-8): 60.52%
- GIPRCNT: % Growth inhibition (Ovarian Cancer, SK-OV-3): 98.32%
- GIPRCNT: % Growth inhibition (Prostate Cancer, DU-145): 63.3%
- GIPRCNT: % Growth inhibition (Prostate Cancer, PC-3): 60.96%
- GIPRCNT: % Growth inhibition (Renal Cancer, 786-0): 68.3555%
- GIPRCNT: % Growth inhibition (Renal Cancer, A498): 62.97%
- GIPRCNT: % Growth inhibition (Renal Cancer, ACHN): 36.59%
- GIPRCNT: % Growth inhibition (Renal Cancer, CAKI-1): 36.66%
- GIPRCNT: % Growth inhibition (Renal Cancer, RXF 393): 33.77%
- GIPRCNT: % Growth inhibition (Renal Cancer, SN12C): 54.47%
- GIPRCNT: % Growth inhibition (Renal Cancer, TK-10): 63.68%
- GIPRCNT: % Growth inhibition (Renal Cancer, UO-31): 29.1%
